Measurements from patent US8932597B2 (priority 2008, dated 2015).

Tests used:
[1] = system: anti-M2 human monoclonal antibody Z3G1; assay type: binding
[2] = system: HuM2e antibody 23K12; assay type: binding, human

Substance	Signal (peptides that show specific binding to Z3G1) [1]	Signal (peptides that bind to 23K21 and 8I10) [2]	Signal (peptides that bind to Z3G1) [1]
692 (SLLTEVETPILNEWGCRCNDSSD; epitope peptide) [compound 692]	2363	721	–
289 (MSLCTEVGMSLCTEV; epitope peptide) [compound 289]	–	2153	1093
504 (SLLTEVETPIRNEWGFRCNDSSD; epitope peptide) [compound 504]	2349	1057	–
559 (SLLTEVETAIRNEWGCRCNDSSD; epitope peptide) [compound 559]	2415	895	–
708 (SLLTEVETPIRNEGGCRCNDSSD; epitope peptide) [compound 708]	2486	708	–
345 (CSLLTEVGSCLTEV; epitope peptide) [compound 345]	2703	1616	–
672 (SLLTEVETPIRNEWGRRCNDSSD; epitope peptide) [compound 672]	2372	735	–
268 (SLLTEVETPIRNECGCRCNDSSD; epitope peptide) [compound 268]	2554	682	–
417 (SLLTEVETPIRNEWGCRCNDVSD; epitope peptide) [compound 417]	–	772	2389
386 (SLLTEVETPIRNEVGCRCNDSSD; epitope peptide) [compound 386]	2411	1371	–
516 (SLLTEVETPIRNEWGCRCPDSSD; epitope peptide) [compound 516]	–	1024	2449
528 (MSLLTCVGCSLLTEV; epitope peptide) [compound 528]	–	978	2467
403 (SLLTEVETPIRNEWGCRCNDCSD; epitope peptide) [compound 403]	–	772	2318
675 (SLLTEVNTPIRNEWGCRCNDSSD; epitope peptide) [compound 675]	2150	732	–
646 (SLLTEVEGPIRNEWGCRCNDSSD; epitope peptide) [compound 646]	2341	763	–
691 (SLLTEVETPIRNEWGCRMNDSSD; epitope peptide) [compound 691]	2356	722	–
341 (CSLLTEVCSLLTEC; epitope peptide) [compound 341]	1122	1644	–
311 (SLLTEVGCLLTEV; epitope peptide) [compound 311]	1924	1859	–
297 (CSLLTEVGMCLCTCV; epitope peptide) [compound 297]	–	1972	2649
679 (SLLTEVETPIRNEWGCECNDSSD; epitope peptide) [compound 679]	2148	730	–
461 (SLLTEVETPLRNEWGCRCNDSSD; epitope peptide) [compound 461]	2239	1268	–
572 (SLLTEVETPIRNEKGCRCNDSSD; epitope peptide) [compound 572]	2580	868	–
406 (SLLTEVETPIRNEWGCRCNDFSD; epitope peptide) [compound 406]	–	788	2395
602 (SLLTEVETEIRNEWGCRCNDSSD; epitope peptide) [compound 602]	2368	828	–

Substance	Signal (peptides that show specific binding to Z3G1) [1]	Signal (peptides that bind to 23K21 and 8I10) [2]	Signal (peptides that bind to Z3G1) [1]
594 (SLLTEVQTPIRNEWGCRCNDSSD; epitope peptide) [compound 594]	2289	838	–
331 (MSLLTECGMSLLTCV; epitope peptide) [compound 331]	–	1690	–
307 (SLCTEVGCLCTCV; epitope peptide) [compound 307]	–	1907	–
601 (SLLTECGSCLTEV; epitope peptide) [compound 601]	–	830	–
497 (SLLTECGSCLCEC; epitope peptide) [compound 497]	–	1077	–
458 (CSLLTECGSCLTEV; epitope peptide) [compound 458]	–	1278	–
323 (SLCTEVGSLLTCV; epitope peptide) [compound 323]	–	1781	–
474 (SLLTECETPIRNEWGCRCNDSSD; epitope peptide) [compound 474]	–	1214	–
558 (CSLLTECGMSCLCEC; epitope peptide) [compound 558]	–	897	–
487 (SLLTNVETPIRNEWGCRCNDSSD; epitope peptide) [compound 487]	–	1142	–
548 (CSLLTECGSLCTEV; epitope peptide) [compound 548]	–	917	–
514 (SLLTEGETPIRNEWGCRCNDSSD; epitope peptide) [compound 514]	–	1029	–
369 (SLLTEAETPIRNEWGCRCNDSSD; epitope peptide) [compound 369]	–	1481	–
515 (SLLTEWETPIRNEWGCRCNDSSD; epitope peptide) [compound 515]	–	1025	–
518 (SYLTEVETPIRNEWGCRCNDSSD; epitope peptide) [compound 518]	–	1019	–
310 (MSCLCECGMSLLTEC; epitope peptide) [compound 310]	–	1887	–
578 (SLLTERETPIRNEWGCRCNDSSD; epitope peptide) [compound 578]	–	859	–
295 (MSLCTEVGMSCLTEV; epitope peptide) [compound 295]	–	2026	–
319 (SLLTECGSLLTCV; epitope peptide) [compound 319]	–	1800	–
361 (SCLCECGCSLLTEC; epitope peptide) [compound 361]	–	1520	–
333 (SLLTCVGSLLTEC; epitope peptide) [compound 333]	–	1683	–
502 (CSCLCEVGSLLTEC; epitope peptide) [compound 502]	–	1064	–
362 (CSLLTECGMCLLTEV; epitope peptide) [compound 362]	–	1517	–
325 (SLLTECGSLLTEV; epitope peptide) [compound 325]	–	1770	–
